Source: ChEMBL document CHEMBL2074035, “Identification of the hepatic efflux transporters of organic anions using double-transfected Madin-Darby canine kidney II cells expressing human organic anion-transporting polypeptide 1B1 (OATP1B1)/multidrug resistance-associated protein 2, OATP1B1/multidrug resistance 1, and OATP1B1/breast cancer …” (J Pharmacol Exp Ther, 2005)

Columns and labels:
[1] = biological target: T1, Broad substrate specificity ATP-binding cassette transporter ABCG2 (Homo sapiens, UniProt Q9UNQ0); assay: TP_TRANSPORTER: Transepithelial Transport (basal to apical) in OATP1B1/BCRP double transfected MDCKII cells; assay type: functional, cell-based; conditions: dog, mdck-ii
T1 sequence (Q9UNQ0 whole entry): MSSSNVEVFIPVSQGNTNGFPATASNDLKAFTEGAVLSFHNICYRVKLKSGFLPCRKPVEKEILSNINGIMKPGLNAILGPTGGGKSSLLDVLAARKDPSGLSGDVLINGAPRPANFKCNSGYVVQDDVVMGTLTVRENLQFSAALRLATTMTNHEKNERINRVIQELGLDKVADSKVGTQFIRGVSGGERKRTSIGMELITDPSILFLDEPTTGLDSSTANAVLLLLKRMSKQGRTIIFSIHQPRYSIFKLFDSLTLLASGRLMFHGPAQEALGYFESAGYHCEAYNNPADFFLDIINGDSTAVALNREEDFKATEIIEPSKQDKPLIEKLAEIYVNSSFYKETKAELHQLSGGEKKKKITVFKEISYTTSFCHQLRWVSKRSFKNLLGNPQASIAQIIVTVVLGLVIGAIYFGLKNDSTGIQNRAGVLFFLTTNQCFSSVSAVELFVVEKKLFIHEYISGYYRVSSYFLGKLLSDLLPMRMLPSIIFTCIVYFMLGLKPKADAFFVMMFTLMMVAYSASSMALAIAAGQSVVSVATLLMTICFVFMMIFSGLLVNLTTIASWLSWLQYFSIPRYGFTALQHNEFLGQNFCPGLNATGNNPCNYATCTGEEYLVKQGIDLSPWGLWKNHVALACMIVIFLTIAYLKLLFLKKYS

[2] = biological target: Canalicular multispecific organic anion transporter 1/Solute carrier organic anion transporter family member 1B1 (Homo sapiens, UniProt Q92887+Q9Y6L6); assay: TP_TRANSPORTER: Transepithelial Transport (basal to apical) in OATP1B1/MRP2 double transfected MDCKII cells; assay type: functional, cell-based; conditions: dog, mdck-ii

Activity [1]	Activity [2]	Structure (SMILES)
substrate [(+)]	substrate [(+)]	C[C@]12CC[C@@H]3c4ccc(OS(=O)(=O)O)cc4CC[C@H]3[C@@H]1CCC2=O [ESTRONE SULFURIC ACID]
substrate [(+)]	substrate [(+)]	CC[C@H](C)C(=O)O[C@H]1C[C@H](O)C=C2C=C[C@H](C)[C@H](CC[C@@H](O)C[C@@H](O)CC(=O)O)[C@H]21 [PRAVASTATIN]

Structure (SMILES)	Activity [1]	Activity [2]
C[C@]12CC[C@@H]3c4ccc(O)cc4CC[C@H]3[C@@H]1CC[C@@H]2O[C@@H]1O[C@H](C(=O)O)[C@@H](O)[C@H](O)[C@H]1O [ESTRADIOL 17B GLUCURONIDE]	substrate [(+)]	substrate [(+)]
